Data from patent US20010007872A1, “METHOD OF TREATING ACUTE, CHRONIC AND/OR NEUROPATHIC PAIN” (priority 1998, published 2001).

How the values were obtained:
[1] = target: T1, NR2B subunit containing NMDA receptor (Rattus norvegicus, UniProt P35439+Q00960); test: Displacement of specific binding of racemic [3H](+)-(1S, 2S)-1-(4-hydroxy-phenyl)-2-(4-hydroxy-4-phenylpiperidino)-1-propanol ([3H]CP-101,606) from rat forebrain membranes; conditions: for Ratio [3H]Prazosin/[3H](+)-(1S, 2S)-1-(4-hydroxy-phenyl)-2-(4-hydroxy-4-phenylpiperidino)-1-propanol: selectivity for NR2B NMDA receptor over α1 adrenergic receptor, ratio of the two IC50, greater than three is considered selective
T1 construct: from rat forebrain membranes; from tissue; host or cells: forebrain membranes of adult male CD rats
Experimental: This affinity is assessed in a radioligand binding assay as described below.
The binding of racemic [^3H] […] Forebrains of adult male CD rats are homogenized in 0.32M sucrose at 4° C. The crude nuclear pellet is removed by centrifugation at 1,000×g for 10 min., and the supernatant centrifuged at 17,000×g for 25 min. The resulting pellet is resuspended in 5 mM Tris acetate pH 7.4 at 4° C. for 10 min. to lyse cellular particles and again centrifuged at 17,000×g. The resulting pellet is washed twice in Tris acetate, resuspended at 10 mg protein/ml and stored at −20° C. until use.
For binding assays, membranes are thawed, homogenized, and diluted to 0.5 mg protein/ml with 50 mM Tris HCl, pH 7.4. Compounds under study are added at various concentrations followed by racemic [^3H] […] Filters are washed for 10 s with ice cold Tris HCl buffer and the radioactivity trapped on the filter quantified by liquid scintillation spectroscopy. […] Specific binding is defined as total binding minus nonspecific binding.
(§1) Affinity for the NR2B subunit containing NMDA receptor is measured as the IC50 for displacement of specific binding of racemic [^3H]

α1-adrengergic receptor = test: Displacement of specific binding of [3H]prazosin from rat forebrain membranes; conditions: 0.2 nM [3H]prazosin, IC50 for displacement of specific binding
Experimental: as §1
Forebrains of adult male Sprague Dawley rats are homogenized in 20 volumes of ice cold 50 mM Tris/HCl buffer (pH 7.7). The homogenate is centrifuged at 50,000 X g for 10 min. at 4° C. The pellet is resuspended and centrifuged under identical conditions and the final pellet is resuspended in 80 volumes of 50 mM Tris/HCl (pH 8.0) at 4° C.
For binding assays, compounds under study are added at various concentrations to 500 μg membrane protein in 1 ml of 50 mM Tris/HCl buffer, followed by [^3H]prazosin (Amersham, specific activity 33 Ci/mmol, 0.2 nM final concentration). Following incubation for 30 min at 25° C. in a shaking water bath, samples are filtered onto Whatman GFB glass fiber filters using a MB48R Cell Harvester (Brandel Research and Development Laboratories, Gaithersburg Md.). Filters are washed three times for 10 s with ice cold Tris HCl buffer and the radioactivity trapped on the filter quantified by liquid scintillation spectroscopy. Nonspecific binding is determined in parallel incubations containing 100 nM prazosin. Specific binding is defined as total binding minus nonspecific binding.

T1 sequence (Q00960 27-1482, other chains not shown): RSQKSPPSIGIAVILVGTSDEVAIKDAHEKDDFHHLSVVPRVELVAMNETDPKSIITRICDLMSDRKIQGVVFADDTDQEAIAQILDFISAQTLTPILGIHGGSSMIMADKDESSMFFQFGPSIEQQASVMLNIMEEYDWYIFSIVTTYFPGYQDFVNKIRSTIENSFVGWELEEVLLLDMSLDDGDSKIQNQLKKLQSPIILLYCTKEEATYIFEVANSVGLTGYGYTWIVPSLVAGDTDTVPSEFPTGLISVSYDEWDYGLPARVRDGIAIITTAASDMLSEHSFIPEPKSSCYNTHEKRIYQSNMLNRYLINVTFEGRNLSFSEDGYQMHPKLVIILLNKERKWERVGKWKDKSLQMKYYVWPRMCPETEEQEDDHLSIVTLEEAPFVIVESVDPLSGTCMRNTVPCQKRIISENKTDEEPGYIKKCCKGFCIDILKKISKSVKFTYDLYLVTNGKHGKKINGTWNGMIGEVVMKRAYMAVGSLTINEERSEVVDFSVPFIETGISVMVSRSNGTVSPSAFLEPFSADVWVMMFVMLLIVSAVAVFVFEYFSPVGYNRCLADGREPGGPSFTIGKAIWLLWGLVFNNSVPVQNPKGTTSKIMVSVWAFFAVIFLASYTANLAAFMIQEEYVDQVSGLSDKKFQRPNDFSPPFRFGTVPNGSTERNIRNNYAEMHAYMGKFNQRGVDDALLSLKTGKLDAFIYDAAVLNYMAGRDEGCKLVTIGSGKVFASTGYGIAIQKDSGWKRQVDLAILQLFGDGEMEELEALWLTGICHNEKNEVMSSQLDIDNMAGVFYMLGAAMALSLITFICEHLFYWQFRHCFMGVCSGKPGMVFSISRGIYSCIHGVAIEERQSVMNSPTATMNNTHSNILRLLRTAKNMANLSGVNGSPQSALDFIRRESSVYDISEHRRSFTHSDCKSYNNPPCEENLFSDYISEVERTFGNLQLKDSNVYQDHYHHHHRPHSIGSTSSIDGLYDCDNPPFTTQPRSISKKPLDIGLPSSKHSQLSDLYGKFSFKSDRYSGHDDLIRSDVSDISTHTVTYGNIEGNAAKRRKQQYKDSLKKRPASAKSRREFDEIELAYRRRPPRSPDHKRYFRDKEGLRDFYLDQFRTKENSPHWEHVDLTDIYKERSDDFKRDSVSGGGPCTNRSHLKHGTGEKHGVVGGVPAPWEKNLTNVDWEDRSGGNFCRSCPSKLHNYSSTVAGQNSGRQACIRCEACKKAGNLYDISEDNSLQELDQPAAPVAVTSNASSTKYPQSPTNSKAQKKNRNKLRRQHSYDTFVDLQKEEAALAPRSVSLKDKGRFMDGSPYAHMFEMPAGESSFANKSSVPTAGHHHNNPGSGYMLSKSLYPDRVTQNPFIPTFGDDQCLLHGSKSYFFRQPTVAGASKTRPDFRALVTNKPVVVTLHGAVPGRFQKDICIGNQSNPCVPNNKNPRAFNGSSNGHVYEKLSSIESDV

| melting point | SMILES | IC50 [1] | Ratio [3H]Prazosin/[3H](+)-(1S, 2S)-1-(4-hydroxy-phenyl)-2-(4-hydroxy-4-phenylpiperidino)-1-propanol [1] | IC50 (α1-adrengergic receptor) |
| --- | --- | --- | --- | --- |
| – | COc1cc([C@H](O)[C@H](C)N2CCC(O)(c3ccccc3)CC2)ccc1O [1S, 2S 1-(4-hydroxy-3-methoxyphenyl)-2-(4-hydroxy-4-phenyl-piperidin-1-yl)-propan-1-ol] | 94 nM | 86 | 8100 nM |
| 159 to 160 °C | Oc1ccc2c(c1)OCC(N1CCC(O)(c3ccc(F)cc3)CC1)[C@H]2O (stereo in doubt) | – | – | – |
| – | OC(CN1CCC(Cc2ccc(F)cc2)CC1)c1ccc(Cl)cc1 (stereo not shown) [Eliprodil, reference compound] | 450 ± 130 nM | 2.2 | 980 ± 220 nM |
| – | C[C@@H]([C@@H](O)c1ccc(O)cc1)N1CCC(O)(c2ccccc2)CC1 [(1S,2S)-1-(4-hydroxyphenyl)-2-(4-hydroxy-4-phenylpiperidin-1-yl)-1-propanol] | – | – | 19500 nM |
| – | Oc1ccc2c(c1)OC[C@@H](N1CCC(O)(c3ccc(F)cc3)CC1)[C@H]2O [(3R,4S)-3-[4-(4-fluorophenyl)-4-hydroxy-piperidin-1-yl] -chroman-4,7-diol] | 18 ± 3 nM | ≧555 | > 10000 nM |
| – | Cc1cc([C@@H](OS(C)(=O)=O)[C@@H](C)N2CCC(O)(c3ccc(F)cc3)CC2)ccc1O (racemic) [(1R*, 2R*)-1-(4-hydroxy-3-methylphenyl)-2-(4-(4-fluorophenyl)-4-hydroxypiperidin-1-yl)-propan-1-ol-mesylate] | – | 714 | 10000 nM |
